US9970947B2, “Fluorescent probe” (MUSC FOUNDATION FOR RESEARCH DEVELOPMENT, priority 2016, dated 2018)
“Also recorded” adds a separate entry of the source.

Tests used:
[1] = test system: mitochondria of cultured rat hepatocytes; experiment: Mitochondrial accumulation and retention of probe after depolarization, confocal imaging; assay type: cell-based; conditions: for retention by mitochondria after depolarization: rat hepatocytes, CCCP 10 μM, oligomycin 10 μg/ml, myxothiazol 10 μM
Method: (§1) Rhodamine 123 (Rh123) and MitoTracker Green (MTG) were obtained from Molecular Probes. Primary rat hepatocytes were isolated from overnight-fasted male Sprague-Dawley rats (200-250 g) by collagenase perfusion. Hepatocytes were plated on Type 1 collagen-coated MatTek dishes at a density of 300,000 cells per well and cultured overnight in Waymouth's MB-742/1 growth medium containing 27 mM NaHCO3, 2 mM L-glutamine, 10% fetal calf serum, 100 nM insulin and 10 nM dexamethasone, pH 7.4 at 37° C. in 5% CO2/air.
(§2) Confocal images of hepatocytes were taken with a Zeiss LSM 510 inverted laser scanning confocal microscope (Carl Zeiss, Germany) using a 63×oil immersion objective.
Overnight-cultured rat hepatocytes were loaded with MFF (1 μM for 20 min), washed and incubated for 60 min.
Overnight-cultured rat hepatocytes were loaded with MFF and MTG (both 1 μM for 20 min), washed and incubated for 60 min. Cells were then incubated with 5 mM fructose and imaged “BEFORE” and “AFTER” addition of CCCP, oligomycin and myxothiazol. […] MFF fluorescence changed essentially identically to MTG consistent with covalent labeling of mitochondrial proteins by MFF.

[2] = test system: mitochondrial chelatable Fe^2+ in cultured rat hepatocytes; experiment: Mitoferrofluor fluorescence quenching after lysosomal iron release with bafilomycin A1; assay type: cell-based; conditions: 120 min after bafilomycin A1, vs vehicle (DMSO)
Method: as §1, §2
Overnight-cultured rat hepatocytes were loaded with MFF and then rhodamine 123, as described in Example 6. […] Panel C represents a quantitative analysis of 10 random fields (*p<0.05 vs vehicle, n=3).

[3] = Absorption, excitation and emission spectra of mitoferrofluor; assay type: physicochemical
[4] = Cell-free MFF fluorescence as a function of Fe2+ concentration; assay type: physicochemical
Method: (§3) MFF (0-10 μM) was dissolved in medium at the presumed intramitochondrial pH (pH 8.0, 37° C.) (FIG. 2, left panel). Fluorescence of MFF (1 μM) was measured as a function of increasing ferrous ammonium sulfate (Fe^2+) and ferric chloride (Fe^3+) concentration from freshly prepared stock solutions (1 mM). Fluorescence intensity is shown in arbitrary units (a.u.). (FIG. 2, right panel).

[5] = test system: mitochondrial chelatable Fe^2+ in cultured rat hepatocytes; experiment: Mitoferrofluor quenching after mitochondrial Fe2+ uptake; assay type: cell-based
Method: as §1, §2
Overnight-cultured rat hepatocytes were loaded with MFF (1 μM for 20 min), washed out and incubated for 60 min. Rh123 (0.5 μM for 20 min) was then loaded. Fe^2+ was added as ferrous ammonium sulfate (10 mM). Fe^2+ addition quenched MFF fluorescence by ˜72%.

[6] = Cell-free MFF fluorescence as a function of Fe3+ concentration; assay type: physicochemical; conditions: cell free medium
Method: as §3

| SMILES | retention by mitochondria after depolarization [1] | quenching of mitochondrial MFF fluorescence after bafilomycin A1 [2] | accumulation into mitochondria ([1]; cultured rat hepatocytes) | fluorescence emission peak [3] | fluorescence excitation peak [3] | extinction coefficient ([3]; at 566 nm) | IC50 ([4]; MFF 1 μM, pH 8.0, 37° C., read-out: IC50 of Fe^2+ quenching of MFF fluorescence) | quenching of MFF fluorescence by Fe^2+ ([4]; cell free medium) | decrease of intramitochondrial MFF fluorescence ([5]; MFF-loaded hepatocytes, excess extracellular Fe^2+ added) | quenching of MFF fluorescence by Fe^2+ addition ([5]; rat hepatocytes, MFF 1 μM for 20 min, ferrous ammonium sulfate 10 mM) | quenching of MFF fluorescence by Fe^3+ [6] |
| --- | --- | --- | --- | --- | --- | --- | --- | --- | --- | --- | --- |
| CN1/C(=C/C=C/c2n(Cc3ccc(CCl)cc3)c3cc(Cl)c(Cl)cc3[n+]2Cc2ccc(CCl)cc2)Oc2ccccc21 [MTG, reference compound] | some release of MTG into the cytosol | – | – | – | – | – | – | – | – | – | – |
| CCN(CC)c1ccc2c(-c3ccccc3C(=O)OCCCOc3cc(OCCCBr)cc(C(=O)Nc4cc5cccnc5c5ncccc45)c3)c3ccc(=[N+](CC)CC)cc-3oc2c1.[Br-] [MFF, N-(9-(2-((3-(3-((1,10-phenanthrolin-5-yl)carbamoyl)-5-(3-bromopropoxy)phenoxy)propoxy)carbonyl)phenyl)-6-(diethylamino)-3H-xanthen-3-ylidene)-N-ethylethanaminium bromide] | retained by mitochondria; also recorded: MFF fluorescence was retained; also recorded: retained MFF to the same extent as MTG | became quenched; also recorded: quenched mitochondrial MFF fluorescence | selectively accumulated into mitochondria | 598 nm | 554 nm | 40,400 cm^−1/M | 1 to 2 µM | strongly and stoichiometrically quenched by Fe^2+ | ~80% | ~72% | not by Fe^3+; also recorded: not Fe^3+ quenched |
